Measured values taken from paper PMC4503722, “Novel Phenotypic Outcomes Identified for a Public Collection of Approved Drugs from a Publicly Accessible Panel of Assays” (PLoS ONE, 2015).

Test system: endothelial tube formation in co-cultures of ECFCs and ADSCs treated with VEGF
Assay: cells
Format: cell-based, human
Details: Homo sapiens, read-out: Anti-Angio IC50

Q: Which IC50 does the source give for `CSc1ccc2c(c1)C(N1CCN(C)CC1)Cc1ccccc1S2` (centres unmarked) [metitepine, reference compound] here?
A: > 10 µM

Same assay, conditions: Homo sapiens, read-out: Anti-Angiogenesis

Q: With `CC(=O)[C@]1(O)Cc2c(O)c3c(c(O)c2[C@@H](O[C@H]2C[C@H](N)[C@H](O)[C@H](C)O2)C1)C(=O)c1ccccc1C3=O` [Idarubicin] as the molecule, how does the IC50 read?
A: 0.0208 µM

Q: For `COc1cc(-c2ccc(=O)[nH]n2)ccc1OC(F)F` [Zardaverine], which IC50 is on record?
A: 1.22 µM

Test system: nuclear β-catenin in C2C12 cells
Assay: cells
Format: cell-based
Details: Mus musculus, C2C12, read-out: Wnt Pathway

Q: With `CC(=O)[C@]1(O)Cc2c(O)c3c(c(O)c2[C@@H](O[C@H]2C[C@H](N)[C@H](O)[C@H](C)O2)C1)C(=O)c1ccccc1C3=O` [Idarubicin] as the molecule, how does the EC50 read?
A: 0.1 µM

Q: For `COc1cc(-c2ccc(=O)[nH]n2)ccc1OC(F)F` [Zardaverine], which EC50 is on record?
A: > 10 µM

Same assay, conditions: Mus musculus, C2C12, read-out: Wnt pot. EC50

Q: With `CSc1ccc2c(c1)C(N1CCN(C)CC1)Cc1ccccc1S2` (centres unmarked) [metitepine, reference compound] as the molecule, how does the EC50 read?
A: > 20 µM

Test system: INS-1E cells
Assay: cells
Format: cell-based, rat
Details: Rattus norvegicus, INS-1E, read-out: Ins. sec. EC50

Q: `CSc1ccc2c(c1)C(N1CCN(C)CC1)Cc1ccccc1S2` (centres unmarked) [metitepine, reference compound] was tested. Which EC50 did it give?
A: 2.9 µM

Same assay, conditions: Rattus norvegicus, INS-1E, read-out: Insulin Secretion

Q: For `CC(=O)[C@]1(O)Cc2c(O)c3c(c(O)c2[C@@H](O[C@H]2C[C@H](N)[C@H](O)[C@H](C)O2)C1)C(=O)c1ccccc1C3=O` [Idarubicin], which EC50 is on record?
A: > 10 µM

Q: `COc1cc(-c2ccc(=O)[nH]n2)ccc1OC(F)F` [Zardaverine] was tested. Which EC50 did it give?
A: > 10 µM

Q: Which EC50 does the source give for `CSc1ccc2c(c1)C(N1CCN(C)CC1)Cc1ccccc1S2` (centres unmarked) [metitepine, reference compound] here?
A: 2.94 µM

Test system: NCI-H716 cells
Assay: cells
Format: cell-based, Human
Details: Homo sapiens, NCI-H716, read-out: GLP 1 Secretion

Q: Which EC50 does the source give for `CC(=O)[C@]1(O)Cc2c(O)c3c(c(O)c2[C@@H](O[C@H]2C[C@H](N)[C@H](O)[C@H](C)O2)C1)C(=O)c1ccccc1C3=O` [Idarubicin] here?
A: > 10 µM

Q: For `COc1cc(-c2ccc(=O)[nH]n2)ccc1OC(F)F` [Zardaverine], which EC50 is on record?
A: > 10 µM

Same assay, conditions: Homo sapiens, NCI-H716, read-out: GLP1 sec. EC50

Q: `CSc1ccc2c(c1)C(N1CCN(C)CC1)Cc1ccccc1S2` (centres unmarked) [metitepine, reference compound] was tested. Which EC50 did it give?
A: > 10 µM

Test system: HeLa cells
Assay: cells
Format: cell-based
Details: Homo sapiens, HeLa, read-out: CellCycle G2/M

Q: Which EC50 does the source give for `CC(=O)[C@]1(O)Cc2c(O)c3c(c(O)c2[C@@H](O[C@H]2C[C@H](N)[C@H](O)[C@H](C)O2)C1)C(=O)c1ccccc1C3=O` [Idarubicin] here?
A: > 10 µM

Q: Which EC50 does the source give for `COc1cc(-c2ccc(=O)[nH]n2)ccc1OC(F)F` [Zardaverine] here?
A: > 10 µM

Q: `CSc1ccc2c(c1)C(N1CCN(C)CC1)Cc1ccccc1S2` (centres unmarked) [metitepine, reference compound] was tested. Which EC50 did it give?
A: > 10 µM

Test system: DLD-1
Assay: cells
Format: cell-based
Details: Homo sapiens, DLD-1, 72 h, read-out: DLD-1 viab. IC50

Q: How did the IC50 turn out when `CSc1ccc2c(c1)C(N1CCN(C)CC1)Cc1ccccc1S2` (centres unmarked) [metitepine, reference compound] was run?
A: 4.4 µM

Same assay, conditions: Homo sapiens, DLD-1, read-out: Basal_Viability ATP DLD-1

Q: `CC(=O)[C@]1(O)Cc2c(O)c3c(c(O)c2[C@@H](O[C@H]2C[C@H](N)[C@H](O)[C@H](C)O2)C1)C(=O)c1ccccc1C3=O` [Idarubicin] was tested. Which IC50 did it give?
A: 0.387 µM

Q: Which IC50 does the source give for `COc1cc(-c2ccc(=O)[nH]n2)ccc1OC(F)F` [Zardaverine] here?
A: > 20 µM

Q: `CSc1ccc2c(c1)C(N1CCN(C)CC1)Cc1ccccc1S2` (centres unmarked) [metitepine, reference compound] was tested. Which IC50 did it give?
A: 4.39 µM

Test system: SW480
Assay: cells
Format: cell-based
Details: Homo sapiens, SW480, 72 h, read-out: SW480 viab. IC50

Q: How did the IC50 turn out when `CSc1ccc2c(c1)C(N1CCN(C)CC1)Cc1ccccc1S2` (centres unmarked) [metitepine, reference compound] was run?
A: 1.9 µM

Same assay, conditions: Homo sapiens, SW480, read-out: Basal_Viability ATP SW480

Q: With `CC(=O)[C@]1(O)Cc2c(O)c3c(c(O)c2[C@@H](O[C@H]2C[C@H](N)[C@H](O)[C@H](C)O2)C1)C(=O)c1ccccc1C3=O` [Idarubicin] as the molecule, how does the IC50 read?
A: 4.75 µM

Q: How did the IC50 turn out when `COc1cc(-c2ccc(=O)[nH]n2)ccc1OC(F)F` [Zardaverine] was run?
A: > 20 µM

Q: With `CSc1ccc2c(c1)C(N1CCN(C)CC1)Cc1ccccc1S2` (centres unmarked) [metitepine, reference compound] as the molecule, how does the IC50 read?
A: 1.9 µM

Test system: HCT116
Assay: cells
Format: cell-based
Details: Homo sapiens, HCT-116, 72 h, read-out: HCT-116 viab. IC50

Q: With `CSc1ccc2c(c1)C(N1CCN(C)CC1)Cc1ccccc1S2` (centres unmarked) [metitepine, reference compound] as the molecule, how does the IC50 read?
A: 3.8 µM

Same assay, conditions: Homo sapiens, HCT-116, read-out: Basal_Viability ATP HCT116

Q: `CC(=O)[C@]1(O)Cc2c(O)c3c(c(O)c2[C@@H](O[C@H]2C[C@H](N)[C@H](O)[C@H](C)O2)C1)C(=O)c1ccccc1C3=O` [Idarubicin] was tested. Which IC50 did it give?
A: 0.0667 µM

Q: With `COc1cc(-c2ccc(=O)[nH]n2)ccc1OC(F)F` [Zardaverine] as the molecule, how does the IC50 read?
A: > 20 µM

Q: How did the IC50 turn out when `CSc1ccc2c(c1)C(N1CCN(C)CC1)Cc1ccccc1S2` (centres unmarked) [metitepine, reference compound] was run?
A: 3.77 µM

Test system: HCT116 cells treated with a GSK3β inhibitor
Assay: cells
Format: cell-based
Details: Homo sapiens, HCT-116, 72 h, read-out: HCT-116 (GSK3β) viab. IC50

Q: `CSc1ccc2c(c1)C(N1CCN(C)CC1)Cc1ccccc1S2` (centres unmarked) [metitepine, reference compound] was tested. Which IC50 did it give?
A: 4.6 µM

Same assay, conditions: Homo sapiens, HCT-116, read-out: GSK3b inh pretreated_Viability ATP HCT116

Q: For `CC(=O)[C@]1(O)Cc2c(O)c3c(c(O)c2[C@@H](O[C@H]2C[C@H](N)[C@H](O)[C@H](C)O2)C1)C(=O)c1ccccc1C3=O` [Idarubicin], which IC50 is on record?
A: 0.1 µM

Q: How did the IC50 turn out when `COc1cc(-c2ccc(=O)[nH]n2)ccc1OC(F)F` [Zardaverine] was run?
A: > 20 µM

Q: With `CSc1ccc2c(c1)C(N1CCN(C)CC1)Cc1ccccc1S2` (centres unmarked) [metitepine, reference compound] as the molecule, how does the IC50 read?
A: 4.57 µM

Target: T1, hp70S6K1 (RPS6KB1) (Homo sapiens, UniProt P23443)
T1 construct: purchased Cerep (LANCE kinase assay platform, contract assay)
T1 sequence (P23443 whole entry): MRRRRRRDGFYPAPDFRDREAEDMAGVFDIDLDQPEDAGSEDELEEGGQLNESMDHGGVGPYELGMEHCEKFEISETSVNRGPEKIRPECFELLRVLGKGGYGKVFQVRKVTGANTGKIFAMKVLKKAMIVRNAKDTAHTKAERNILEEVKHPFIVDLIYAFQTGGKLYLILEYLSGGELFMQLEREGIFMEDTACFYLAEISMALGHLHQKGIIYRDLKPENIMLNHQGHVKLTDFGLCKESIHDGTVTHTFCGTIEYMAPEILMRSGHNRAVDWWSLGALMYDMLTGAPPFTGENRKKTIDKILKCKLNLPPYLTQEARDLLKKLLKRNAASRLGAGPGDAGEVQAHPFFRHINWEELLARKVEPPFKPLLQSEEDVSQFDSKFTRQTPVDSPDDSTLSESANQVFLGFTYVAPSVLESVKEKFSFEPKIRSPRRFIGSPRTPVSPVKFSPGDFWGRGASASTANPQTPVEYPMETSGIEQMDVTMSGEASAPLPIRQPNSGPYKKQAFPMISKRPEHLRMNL
Assay: Cerep LANCE kinase assay hp70S6K1 (S1 assay 31)
Format: biochemical
Details: kinase assay; read-out: p70S6K1

Q: For `CC(=O)[C@]1(O)Cc2c(O)c3c(c(O)c2[C@@H](O[C@H]2C[C@H](N)[C@H](O)[C@H](C)O2)C1)C(=O)c1ccccc1C3=O` [Idarubicin], which IC50 is on record?
A: > 20 µM

Q: For `COc1cc(-c2ccc(=O)[nH]n2)ccc1OC(F)F` [Zardaverine], which IC50 is on record?
A: > 20 µM

Same assay, conditions: read-out: p70S6K1

Q: With `CSc1ccc2c(c1)C(N1CCN(C)CC1)Cc1ccccc1S2` (centres unmarked) [metitepine, reference compound] as the molecule, how does the IC50 read?
A: > 20 µM

Target: T2, hKDR (Homo sapiens, UniProt P35968)
T2 construct: purchased Cerep (LANCE kinase assay platform, contract assay)
T2 sequence (P35968 20-1356): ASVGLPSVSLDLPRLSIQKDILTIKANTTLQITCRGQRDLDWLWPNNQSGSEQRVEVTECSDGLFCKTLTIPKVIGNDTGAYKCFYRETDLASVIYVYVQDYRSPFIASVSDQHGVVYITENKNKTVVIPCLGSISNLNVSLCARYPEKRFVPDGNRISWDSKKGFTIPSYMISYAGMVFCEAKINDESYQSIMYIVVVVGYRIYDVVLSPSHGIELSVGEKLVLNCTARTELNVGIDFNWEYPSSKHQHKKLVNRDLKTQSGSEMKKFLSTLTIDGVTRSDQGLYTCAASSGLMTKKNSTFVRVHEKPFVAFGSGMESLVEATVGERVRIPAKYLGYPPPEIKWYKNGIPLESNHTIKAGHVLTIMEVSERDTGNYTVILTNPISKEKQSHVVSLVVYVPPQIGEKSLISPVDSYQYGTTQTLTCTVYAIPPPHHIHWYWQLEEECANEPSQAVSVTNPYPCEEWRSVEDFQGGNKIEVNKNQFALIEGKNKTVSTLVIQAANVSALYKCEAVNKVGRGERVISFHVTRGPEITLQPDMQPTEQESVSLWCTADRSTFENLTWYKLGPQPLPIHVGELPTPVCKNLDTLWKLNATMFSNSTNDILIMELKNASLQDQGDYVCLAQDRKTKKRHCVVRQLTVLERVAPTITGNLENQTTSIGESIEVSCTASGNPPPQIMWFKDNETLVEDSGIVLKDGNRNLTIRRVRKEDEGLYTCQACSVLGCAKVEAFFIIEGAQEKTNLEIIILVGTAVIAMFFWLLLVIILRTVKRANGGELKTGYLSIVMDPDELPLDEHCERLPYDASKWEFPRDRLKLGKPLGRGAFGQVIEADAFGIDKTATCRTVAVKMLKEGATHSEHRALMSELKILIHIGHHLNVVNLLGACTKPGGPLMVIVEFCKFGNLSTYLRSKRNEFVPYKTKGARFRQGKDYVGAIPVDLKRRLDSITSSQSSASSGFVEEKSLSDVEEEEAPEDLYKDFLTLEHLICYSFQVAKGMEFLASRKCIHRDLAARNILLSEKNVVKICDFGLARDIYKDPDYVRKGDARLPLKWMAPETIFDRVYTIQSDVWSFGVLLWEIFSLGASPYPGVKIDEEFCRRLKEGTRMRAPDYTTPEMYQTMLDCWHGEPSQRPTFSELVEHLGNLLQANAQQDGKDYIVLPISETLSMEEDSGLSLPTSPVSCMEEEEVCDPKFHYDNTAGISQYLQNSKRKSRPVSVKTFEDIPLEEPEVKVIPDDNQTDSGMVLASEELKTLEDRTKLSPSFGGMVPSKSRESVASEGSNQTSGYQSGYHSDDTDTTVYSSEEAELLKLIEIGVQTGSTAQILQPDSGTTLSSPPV
Assay: Cerep LANCE kinase assay hKDR (S1 assay 32)
Format: biochemical
Details: kinase assay; read-out: KDR

Q: For `CC(=O)[C@]1(O)Cc2c(O)c3c(c(O)c2[C@@H](O[C@H]2C[C@H](N)[C@H](O)[C@H](C)O2)C1)C(=O)c1ccccc1C3=O` [Idarubicin], which IC50 is on record?
A: > 20 µM

Q: Which IC50 does the source give for `COc1cc(-c2ccc(=O)[nH]n2)ccc1OC(F)F` [Zardaverine] here?
A: > 20 µM

Same assay, conditions: read-out: KDR

Q: With `CSc1ccc2c(c1)C(N1CCN(C)CC1)Cc1ccccc1S2` (centres unmarked) [metitepine, reference compound] as the molecule, how does the IC50 read?
A: > 20 µM

Target: T3, hJAK2 (Homo sapiens, UniProt O60674)
T3 construct: purchased Cerep (LANCE kinase assay platform, contract assay)
T3 sequence (O60674 whole entry): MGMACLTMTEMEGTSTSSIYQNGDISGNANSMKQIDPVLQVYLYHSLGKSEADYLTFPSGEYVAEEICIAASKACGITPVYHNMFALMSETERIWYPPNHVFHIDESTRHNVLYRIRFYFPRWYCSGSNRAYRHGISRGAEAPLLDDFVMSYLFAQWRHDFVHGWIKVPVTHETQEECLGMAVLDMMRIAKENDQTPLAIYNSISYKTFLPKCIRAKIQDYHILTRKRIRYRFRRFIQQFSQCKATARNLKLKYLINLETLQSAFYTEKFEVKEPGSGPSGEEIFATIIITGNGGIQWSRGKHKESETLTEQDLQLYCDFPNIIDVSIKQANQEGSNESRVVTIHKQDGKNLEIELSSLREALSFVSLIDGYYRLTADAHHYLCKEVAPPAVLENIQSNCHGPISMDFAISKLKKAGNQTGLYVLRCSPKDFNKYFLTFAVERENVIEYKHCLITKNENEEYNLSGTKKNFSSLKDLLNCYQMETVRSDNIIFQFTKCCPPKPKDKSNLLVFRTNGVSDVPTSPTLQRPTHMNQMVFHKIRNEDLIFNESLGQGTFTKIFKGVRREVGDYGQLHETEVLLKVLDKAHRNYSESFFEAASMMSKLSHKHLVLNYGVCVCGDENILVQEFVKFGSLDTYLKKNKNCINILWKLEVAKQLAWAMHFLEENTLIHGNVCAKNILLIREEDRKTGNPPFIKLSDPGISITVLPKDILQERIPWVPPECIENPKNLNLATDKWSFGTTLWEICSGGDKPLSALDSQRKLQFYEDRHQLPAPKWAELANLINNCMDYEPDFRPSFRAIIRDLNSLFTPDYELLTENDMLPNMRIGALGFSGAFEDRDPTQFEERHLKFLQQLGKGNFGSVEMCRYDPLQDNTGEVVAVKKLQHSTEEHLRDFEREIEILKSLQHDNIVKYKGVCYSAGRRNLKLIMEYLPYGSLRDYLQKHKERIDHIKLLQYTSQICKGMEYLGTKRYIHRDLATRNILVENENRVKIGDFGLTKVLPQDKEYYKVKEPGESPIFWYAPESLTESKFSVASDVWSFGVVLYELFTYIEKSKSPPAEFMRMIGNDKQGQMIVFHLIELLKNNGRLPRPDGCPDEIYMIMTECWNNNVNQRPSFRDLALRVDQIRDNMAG
Assay: Cerep LANCE kinase assay hJAK2 (S1 assay 33)
Format: biochemical
Details: kinase assay; read-out: JAK2

Q: For `CC(=O)[C@]1(O)Cc2c(O)c3c(c(O)c2[C@@H](O[C@H]2C[C@H](N)[C@H](O)[C@H](C)O2)C1)C(=O)c1ccccc1C3=O` [Idarubicin], which IC50 is on record?
A: > 20 µM

Q: Which IC50 does the source give for `COc1cc(-c2ccc(=O)[nH]n2)ccc1OC(F)F` [Zardaverine] here?
A: > 20 µM

Same assay, conditions: read-out: JAK2

Q: Which IC50 does the source give for `CSc1ccc2c(c1)C(N1CCN(C)CC1)Cc1ccccc1S2` (centres unmarked) [metitepine, reference compound] here?
A: > 20 µM

Target: T4, hGSK3b (Homo sapiens, UniProt P49841)
T4 construct: purchased Cerep (LANCE kinase assay platform, contract assay)
T4 sequence (P49841 whole entry): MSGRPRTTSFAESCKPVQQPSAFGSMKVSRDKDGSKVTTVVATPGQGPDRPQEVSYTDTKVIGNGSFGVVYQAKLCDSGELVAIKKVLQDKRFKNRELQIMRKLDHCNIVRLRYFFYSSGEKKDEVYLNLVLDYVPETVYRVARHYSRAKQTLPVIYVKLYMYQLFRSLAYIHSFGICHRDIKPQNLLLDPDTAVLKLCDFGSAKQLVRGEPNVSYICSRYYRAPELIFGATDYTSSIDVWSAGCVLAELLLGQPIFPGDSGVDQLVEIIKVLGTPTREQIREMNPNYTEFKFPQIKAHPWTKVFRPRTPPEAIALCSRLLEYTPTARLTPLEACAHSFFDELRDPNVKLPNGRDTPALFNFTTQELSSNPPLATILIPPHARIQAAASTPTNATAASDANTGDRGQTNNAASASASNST
Assay: Cerep LANCE kinase assay hGSK3b (S1 assay 34)
Format: biochemical
Details: kinase assay; read-out: GSK3b

Q: `CC(=O)[C@]1(O)Cc2c(O)c3c(c(O)c2[C@@H](O[C@H]2C[C@H](N)[C@H](O)[C@H](C)O2)C1)C(=O)c1ccccc1C3=O` [Idarubicin] was tested. Which IC50 did it give?
A: > 20 µM

Q: For `COc1cc(-c2ccc(=O)[nH]n2)ccc1OC(F)F` [Zardaverine], which IC50 is on record?
A: > 20 µM

Same assay, conditions: read-out: GSK3b

Q: Which IC50 does the source give for `CSc1ccc2c(c1)C(N1CCN(C)CC1)Cc1ccccc1S2` (centres unmarked) [metitepine, reference compound] here?
A: > 20 µM

Target: T5, hFLT3 (Homo sapiens, UniProt P36888)
T5 construct: purchased Cerep (LANCE kinase assay platform, contract assay)
T5 sequence (P36888 27-993): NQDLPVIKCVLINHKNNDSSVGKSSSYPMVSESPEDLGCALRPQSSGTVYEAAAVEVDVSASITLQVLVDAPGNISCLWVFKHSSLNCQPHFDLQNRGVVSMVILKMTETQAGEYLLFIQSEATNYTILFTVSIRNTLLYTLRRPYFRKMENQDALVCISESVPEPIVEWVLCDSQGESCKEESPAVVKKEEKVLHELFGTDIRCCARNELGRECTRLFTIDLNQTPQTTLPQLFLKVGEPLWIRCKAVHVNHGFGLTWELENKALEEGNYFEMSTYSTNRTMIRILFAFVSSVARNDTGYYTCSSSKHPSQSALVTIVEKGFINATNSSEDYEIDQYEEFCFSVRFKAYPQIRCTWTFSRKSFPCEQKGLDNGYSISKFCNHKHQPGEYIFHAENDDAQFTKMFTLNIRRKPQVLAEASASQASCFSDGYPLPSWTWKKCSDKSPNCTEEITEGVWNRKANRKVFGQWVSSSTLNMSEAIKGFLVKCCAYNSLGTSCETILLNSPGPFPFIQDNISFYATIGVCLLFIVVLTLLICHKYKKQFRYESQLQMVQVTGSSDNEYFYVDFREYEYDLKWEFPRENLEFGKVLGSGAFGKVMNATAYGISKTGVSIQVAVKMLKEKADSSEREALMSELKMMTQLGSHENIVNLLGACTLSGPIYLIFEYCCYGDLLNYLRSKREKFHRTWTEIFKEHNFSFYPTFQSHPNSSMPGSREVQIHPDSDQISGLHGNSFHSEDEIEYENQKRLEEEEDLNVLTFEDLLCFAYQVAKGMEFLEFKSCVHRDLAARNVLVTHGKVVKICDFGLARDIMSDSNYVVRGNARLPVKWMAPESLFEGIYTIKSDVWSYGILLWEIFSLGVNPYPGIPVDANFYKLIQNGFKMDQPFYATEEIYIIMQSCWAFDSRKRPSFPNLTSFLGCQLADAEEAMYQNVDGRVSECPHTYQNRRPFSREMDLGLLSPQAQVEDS
Assay: Cerep LANCE kinase assay hFLT3 (S1 assay 35)
Format: biochemical
Details: kinase assay; read-out: FLT3

Q: With `CC(=O)[C@]1(O)Cc2c(O)c3c(c(O)c2[C@@H](O[C@H]2C[C@H](N)[C@H](O)[C@H](C)O2)C1)C(=O)c1ccccc1C3=O` [Idarubicin] as the molecule, how does the IC50 read?
A: > 20 µM

Q: With `COc1cc(-c2ccc(=O)[nH]n2)ccc1OC(F)F` [Zardaverine] as the molecule, how does the IC50 read?
A: > 20 µM

Same assay, conditions: read-out: FLT3

Q: With `CSc1ccc2c(c1)C(N1CCN(C)CC1)Cc1ccccc1S2` (centres unmarked) [metitepine, reference compound] as the molecule, how does the IC50 read?
A: > 20 µM
